Results from patent publication US20100286260A1, “MILNACIPRAN FORMULATIONS” (priority 2009, published 2010).

Experiments:
[1] = Conversion to cyclic degradation product F1612 in 0.1 M pH 9.0 buffer at 50° C.; format: physicochemical; settings: 50° C. and pH 9.0
Description: Milnacipran hydrochloride was exposed to 0.1 M pH 9.0 buffer (glycine-NaOH) at 50° C. in a closed glass flask for several days.

[2] = format: physicochemical
Description: (§1) Milnacipran can be easily processed in solvent state with conventional binder such as Povidone. However, in aqueous state the milnacipran has some unusual properties which present difficulties in drug layering approach. […] In exemplary embodiments, the PEG functions as a co-binder, anti-tacking agent, plasticizer to HPMC and as an eraser to the drug's deliquescent property.

[3] = Deliquescence; format: physicochemical; settings: room temperature
Description: as §1

[4] = test system: uptake of dopamine; settings: cited from earlier work

SMILES: CCN(CC)C(=O)C1(c2ccccc2)CC1CN (stereo not shown) [Milnacipran, milnacipran]
- formation of the cyclic degradation product [1]: rapid formation
- solubility in water [2]: highly soluble
- deliquescent at RH [3]: 75-80 % RH
- effect on the uptake of dopamine [4]: does not affect
